Reference: paper PMC9077138, “An investigation on 3-acetyl-7-methoxy-coumarin Schiff bases and their Ru(II) metallates with potent antiproliferative activity and enhanced LDH and NO release” (RSC Advances, 2018)
Read-outs that look alike come from different tables or passages of the source.

How the values were obtained:
P. aeruginosa = assay: In vitro antibacterial assay (zone of inhibition, MIC); type: cell-based, Pseudomonas aeruginosa; conditions: for zone of inhibition at 50 µg/mL / zone of inhibition at 100 µg/mL: Pseudomonas aeruginosa; for Minimum inhibitory concentration (MIC); head: IC50 VALUES / Zone of inhibition: P. aeruginosa
Procedure: (§1) The free ligands and their cyclometallated ruthenium(II) carbonyl complexes were screened for their in vitro antimicrobial activity against certain pathogenic bacterial and fungal species at three different concentrations using disc diffusion method.
(§2) Antimicrobial activities of [RuHClCO(PPh3)3], ligands H2L^1–4 and new organometallic Ru(II) complexes (1–4) were evaluated by agar well diffusion method[76] as reported, by taking Staphylococcus aureus, Streptococcus pneumonie, Pseudomonas aeruginosa, Salmonella paratyphi and fungus such as Candida albicans, Trichophyton rubrum, Aspergillus niger, Aspergillus fumigatus and Candida tropicalis. The above said all test organisms were obtained from the MTCC, Chandigarh, India and Microbiological laboratory, Coimbatore, Tamil Nadu, India. The antimicrobial activity of the test compounds was checked with various concentrations (25 μg ml^−1, 50 μg ml^−1 and 100 μg ml^−1) against all the test pathogens. Gentamicin and ketoconazole were used as positive controls to study the antibacterial and antifungal activities respectively. Each experiment was performed in triplicate and the results are represented as average zone of inhibition and minimum inhibitory concentration of all the test pathogens.

C. albicans = assay: In vitro antifungal assay (zone of inhibition, MIC); type: cell-based, Candida albicans; conditions: for zone of inhibition at 50 µg/mL / zone of inhibition at 100 µg/mL: Candida albicans; for Minimum inhibitory concentration (MIC); head: IC50 VALUES / Zone of inhibition: C. albicans
Procedure: as §1, §2

Aspergillus niger = assay: as above; type: cell-based
Procedure: as §1, §2

BSA = target: T1, BSA (Bos taurus, UniProt P02769); assay: BSA tryptophan fluorescence quenching; type: binding, bovine; conditions: for Quenching constant kq / Stern–Volmer KSV / number of binding sites n / Binding constant Kbin: BSA; for Binding constant Kbin: Scatchard equation; for quenching of BSA fluorescence intensity at 346 nm: compounds 10–100 μM, BSA 10 μM
T1 construct: purchased HiMedia (Mumbai, India)
T1 sequence (P02769 25-607): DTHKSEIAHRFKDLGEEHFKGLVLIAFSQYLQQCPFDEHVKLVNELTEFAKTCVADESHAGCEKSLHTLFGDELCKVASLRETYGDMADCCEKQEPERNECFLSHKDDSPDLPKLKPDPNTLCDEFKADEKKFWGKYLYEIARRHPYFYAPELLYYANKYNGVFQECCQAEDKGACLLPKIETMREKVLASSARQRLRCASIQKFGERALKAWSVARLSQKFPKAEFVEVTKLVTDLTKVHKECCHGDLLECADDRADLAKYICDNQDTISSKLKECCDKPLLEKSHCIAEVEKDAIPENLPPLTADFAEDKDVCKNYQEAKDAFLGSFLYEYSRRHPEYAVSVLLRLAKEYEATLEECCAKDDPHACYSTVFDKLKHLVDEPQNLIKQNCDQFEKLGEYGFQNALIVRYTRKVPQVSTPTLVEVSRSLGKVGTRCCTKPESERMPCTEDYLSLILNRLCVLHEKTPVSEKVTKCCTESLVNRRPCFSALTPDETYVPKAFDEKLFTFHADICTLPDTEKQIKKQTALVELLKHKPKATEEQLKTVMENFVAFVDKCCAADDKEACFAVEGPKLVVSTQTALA
Text: The obtained results confirmed the interaction of the ligands and complexes with serum albumins. The absorption spectra of the serum albumins in the absence and presence of ligands H2L^1–4 and the complexes 1–4 are given in Fig. S29 in the ESI. ^† On adding ligands and complexes 1–4 to albumins, the absorbance intensity of serum albumins was decreased with a red shift of 2 nm. The observed changes indicated a static quenching mechanism of serum albumins by the ligands and complexes (1–4). To obtain a quantitative insight into the quenching progression, the Stern–Volmer quenching constant (KSV) and the quenching constant (Kq) were calculated from the Stern–Volmer equation using the Io/ICorrversus [Q] plot (Table 4).[53] The observed linearity in the plots (Fig. 13) indicated the ability of the compounds to quench the emission intensity of serum albumins and the order of quenching constant of the compounds is complex 3 > complex 2 > complex 1 > complex 4 > H2L^3 > H2L^2 > H2L^1 > H2L^4.
Furthermore, the equilibrium binding constant and number of binding sites were evaluated by using the Scatchard equation. The Kbin values were derived from the graph between log[(Fo − F)/F] and log[Q] From the results, we confirmed that the Ru(II) complexes having a large hydrophobic area can interact more efficiently than the ligands with serum albumins via a static pathway. The higher binding affinity of the complexes over the ligands may be due to the efficient binding of protein moiety with the complexed metal ions. Here, the binding affinities of the complexes with serum albumins followed the same order as those with DNA binding studies, complex 3 > complex 2 > complex 1 > complex 4 > H2L^3 > H2L^2 > H2L^1 > H2L^4. Variation in the binding affinity of the compounds with serum albumins depends on the electron-donating ability of the ligand, i.e. the substitution on the N-terminal nitrogen atom. The binding capability of the compounds to serum albumins increased with the increase in electron-donating ability of the substituent on the terminal nitrogen of the coordinated thiosemicarbazone ligand. The obtained quenching constant and binding constant values of these new cyclometallated ruthenium(II) complexes agree well with those reported for other ruthenium(II) complexes.[31,44,54–56] […]
Serum albumin binding study
Bovine Serum Albumin (BSA) and human serum albumin were purchased from Hi Media, The protein binding study was performed by tryptophan fluorescence quenching experiments using bovine serum albumin (BSA, 10 µM) or human serum albumin (HSA, 10 µM) as the substrate in phosphate buffer (pH= 7.2). Quenching of the emission intensity of tryptophan residues of BSA at 346 nm (excitation wavelength at 280 nm)/ HSA at 345 nm (excitation wavelength at 290 nm) was monitored using ligands and complexes as quenchers with increasing concentration (10-100µM). Synchronous fluorescence spectra of BSA or HSA with various concentrations of the complexes were obtained from 300 to 400 nm when ∆λ = 60 nm and from 290 to 500 nm when ∆λ = 15 nm. For synchronous fluorescence spectra, the same concentrations of serum albumins and the compounds were also used and the spectra were measured at two different Δλ values (difference between the excitation and emission wavelengths of BSA), such as 15 and 60 nm. Fluorescence and synchronous measurements were performed using a 1 cm quartz cell on a JASCO FP 6600 spectrofluorimeter.
The quenching data can be analyzed according to the Stern-Volmer equation, […]
Io/Icorr =K SV[Q]+1 Eq (S2) where Iₒ is the emission intensity in the absence of compound, Icorr is the corrected emission intensity in the presence of compound, KSV is the quenching constant and [Q] is the concentration of the compound.
In order to correct the inner filter effect, the following equation used Icorr = Iobs*10 (Aexc+Aem)/2 where Icorr is the corrected fluorescence value, Iobs the measured fluorescence value, Aexc is […]

S. pneumonie = assay: In vitro antibacterial assay (zone of inhibition, MIC); type: cell-based, Streptococcus pneumonie; conditions: for zone of inhibition at 50 µg/mL / zone of inhibition at 100 µg/mL: Streptococcus; for Minimum inhibitory concentration (MIC); head: IC50 VALUES / Zone of inhibition: S. pneumonie
Procedure: as §1, §2

[1] = tested on: human normal keratinocyte cells (HaCaT); assay: MTT cytotoxicity assay; type: cell-based; conditions: 48 h, read-out: IC50 values HaCaT
Procedure: In order to investigate the selectivity of the compounds for cancer cells rather than normal cell lines, the compounds were also screened for their anticancer activity on the human normal keratinocyte cells (HaCaT).
(§3) Cytotoxic activity of the compounds was tested with human lung cancer cell lines A549, human breast cancer cell lines MCF-7 and human normal keratinocyte cells (HaCaT) by using MTT assay, which was done according to the earlier literature methods[77] and IC50 values obtained from nonlinear regression using GraphPad Prism 5.[78] The LDH release[79] and NO release[80] assays of the compounds was evaluated by the earlier reported methods.

[2] = tested on: human breast cancer cell line MCF-7; assay: MTT cytotoxicity assay; type: cell-based; conditions: read-out: IC50 values MCF-7
Text: (§4) The DNA/protein binding studies, antioxidant and antimicrobial studies had shown that the ligands and ruthenium(II) complexes studied here have therapeutic potentials and were subjected to study their anticancer activity. A number of coumarin derivatives have shown considerable anticancer activity against a number of cell lines. All the 3-acetyl-7-methoxy-coumarin-4(N)-substituted thiosemicarbazone ligands, metal precursor [RuHClCO(PPh3)3] and their new cyclometallated Ru(II) complexes were assessed for their cytotoxicity with two human derived cell lines namely human lung carcinoma (A549) and human breast cancer cells (MCF-7) by using MTT assay. For comparison purpose, cisplatin was used as a positive control under identical conditions.
as §3

[3] = tested on: human lung carcinoma cancer cell line A549; assay: MTT cytotoxicity assay; type: cell-based; conditions: read-out: IC50 values A549
Text: as §4, §3

Structure (SMILES) | zone of inhibition at 50 µg/mL (P. aeruginosa) [mm] | zone of inhibition at 100 µg/mL (P. aeruginosa) [mm] | zone of inhibition at 50 µg/mL (C. albicans) [mm] | zone of inhibition at 100 µg/mL (C. albicans) [mm] | zone of inhibition at 50 µg/mL (Aspergillus niger) [mm] | zone of inhibition at 100 µg/mL (Aspergillus niger) [mm] | Kd (BSA) [µM] | zone of inhibition at 50 µg/mL (S. pneumonie) [mm] | zone of inhibition at 100 µg/mL (S. pneumonie) [mm] | IC50 ([1]; Homo sapiens, HaCaT) [µM] | IC50 ([2]; Homo sapiens, MCF7, 48 h) [µM] | IC50 ([3]; Homo sapiens, A549, 48 h) [µM] | Minimum inhibitory concentration (MIC); head: IC50 VALUES (P. aeruginosa) [µM] | Zone of inhibition (P. aeruginosa; 50 µg/ml) [mm] | Zone of inhibition (P. aeruginosa; 100 µg/ml) [mm] | Minimum inhibitory concentration (MIC); head: IC50 VALUES (C. albicans) [µM] | Zone of inhibition (C. albicans; 50 µg/ml) [mm] | Zone of inhibition (C. albicans; 100 µg/ml) [mm] | Minimum inhibitory concentration (MIC); head: IC50 VALUES (Aspergillus niger) [µM] | Zone of inhibition (Aspergillus niger; 50 µg/ml) [mm] | further results
CNC(=S)NN=C(C)c1cc2ccc(OC)cc2oc1=O [H2L^2, ((1E)-1-(1-(7-methoxy-2-oxo-2H-chromen-3-yl)ethylidene) 4(N)-methylthiosemicarbazone)] | 12.6 ± 0.37 | 17.7 ± 0.45 | 13.38 ± 0.12 | 18.17 ± 0.15 | 12.4 ± 0.33 | 16.6 ± 0.21 | 333 | 12.1 ± 0.33 | 17.3 ± 0.41 | > 40 | 12.1 ± 0.32 | 12.1 ± 0.16 |  |  |  |  |  |  |  |  | 
COc1ccc2[c]3c(c(=O)oc2c1)C(C)=[N+]1N=C(N)[S][Ru-4]31([C]#[O+])([P+](c1ccccc1)(c1ccccc1)c1ccccc1)[P+](c1ccccc1)(c1ccccc1)c1ccccc1 [Complex 1, [Ru(7MAC-tsc)(CO)(PPh3)2]] |  |  |  |  |  |  |  |  |  |  |  |  | 16.37 ± 0.19 | 13.23±0.32 | 16.66±0.44 | 15.19 ± 0.15 | 12.22±0.41 | 18.91±0.41 | 15.89 ± 0.18 | 11.74±0.26 | Zone of inhibition (Aspergillus niger; 100 µg/ml): 17.52±0.41 mm; Quenching constant kq (BSA): 1.674 ± 0.040 × 10^12 M^−1 s^−1; Stern–Volmer KSV (BSA): 1.674 ± 0.040 × 10^4 M^−1; number of binding sites n (BSA): 1.0408 ± 0.030; Binding constant Kbin (BSA): 2.251 ± 0.029 × 10^4 M^−1; quenching of BSA fluorescence intensity at 346 nm (BSA): 62.61%; Minimum inhibitory concentration (MIC); head: IC50 VALUES (S. pneumonie): 15.86 ± 0.07 µM; Zone of inhibition (S. pneumonie; 50 µg/ml): 12.41±0.36 mm; Zone of inhibition (S. pneumonie; 100 µg/ml): 18.51±0.94 mm; IC50 ([1]; MTT, normal cells): > 40 µM; IC50 ([2]; MTT, 48 h): 2.86 ± 0.17 µM; IC50 ([3]; MTT, 48 h): 2.96 ± 0.07 µM
CCNC(=S)NN=C(C)c1cc2ccc(OC)cc2oc1=O [H2L^3, ((1E)-1-(1-(7-methoxy-2-oxo-2H-chromen-3-yl)ethylidene) 4(N)-ethylthiosemicarbazone)] | 12.5 ± 0.34 | 16.4 ± 0.23 | 11.3 ± 0.12 | 18.2 ± 0.22 | 12.6 ± 0.31 | 17.62 ± 0.12 | 70.9 | 11.2 ± 0.15 | 17.2 ± 0.21 | > 40 | 11.3 ± 0.21 | 11.6 ± 0.15 |  |  |  |  |  |  |  |  | 
COc1ccc2cc(C(C)=NNC(N)=S)c(=O)oc2c1 [H2L^1, ((1E)-1-(1-(7-methoxy-2-oxo-2H-chromen-3-yl)ethylidene)thiosemicarbazone)] | 13.2 ± 0.41 | 18.1 ± 0.24 | 11.2 ± 0.14 | 17 ± 0.91 | 13.1 ± 0.33 | 17.41 ± 0.14 | 507 | 12.38 ± 0.12 | 16.4 ± 0.31 | > 40 | 13.1 ± 0.29 | 12.6 ± 0.17 |  |  |  |  |  |  |  |  | 
CNC1=N[N+]2=C(C)c3[c](c4ccc(OC)cc4oc3=O)[Ru-4]2([C]#[O+])([P+](c2ccccc2)(c2ccccc2)c2ccccc2)([P+](c2ccccc2)(c2ccccc2)c2ccccc2)[S]1 [Complex 2, [Ru(7MAC-mtsc)(CO)(PPh3)2]] |  |  |  |  |  |  |  |  |  |  |  |  | 14.81 ± 0.19 | 12.12±0.13 | 17.95±0.21 | 13.59 ± 0.15 | 12.45±0.31 | 16.28±0.10 | 14.67 ± 0.31 | 11.56±0.24 | Zone of inhibition (Aspergillus niger; 100 µg/ml): 19.63±0.12 mm; Quenching constant kq (BSA): 2.382 ± 0.011 × 10^12 M^−1 s^−1; Stern–Volmer KSV (BSA): 2.382 ± 0.011 × 10^4 M^−1; number of binding sites n (BSA): 1.0478 ± 0.031; Binding constant Kbin (BSA): 3.323 ± 0.027 × 10^4 M^−1; quenching of BSA fluorescence intensity at 346 nm (BSA): 71.15%; Minimum inhibitory concentration (MIC); head: IC50 VALUES (S. pneumonie): 16.43 ± 0.09 µM; Zone of inhibition (S. pneumonie; 50 µg/ml): 13.21±0.13 mm; Zone of inhibition (S. pneumonie; 100 µg/ml): 17.14±0.12 mm; IC50 ([1]; MTT, normal cells): > 40 µM; IC50 ([2]; MTT, 48 h): 2.62 ± 0.07 µM; IC50 ([3]; MTT, 48 h): 2.93 ± 0.07 µM
COc1ccc2cc(/C(C)=N\NC(=S)Nc3ccccc3)c(=O)oc2c1 [H2L^4, ((1E)-1-(1-(7-methoxy-2-oxo-2H-chromen-3-yl)ethylidene) 4(N)-phenylthiosemicarbazone)] | 12.1 ± 0.32 | 17.5 ± 0.65 | 12.3 ± 0.21 | 17.19 ± 0.15 | 12.5 ± 0.83 | 17.3 ± 0.21 | 900 | 12.2 ± 0.43 | 18.1 ± 0.22 | > 40 | 13.1 ± 0.25 | 13.8 ± 0.18 |  |  |  |  |  |  |  |  | 
